# Measurements reported in US4620014A, “2-furylbutyrolactones and methods for using same” (priority 1983, dated 1986).
# Read-outs that look alike come from different tables or passages of the source.
# How the values were obtained:
# C57BL/6 mice = conditions: 10 mice per dose
# Experimental: Single dose LD50 in C57BL/6 mice for Cpd. 1 is determined following the method of Spearman and Karber described in Basic Exercises in Immunochemistry, 1979. Briefly, 0.5 ml of each dose is given to each of ten mice. The survivors are counted after 3 days and the LD50 is calculated using the following formula: [formula] where D=fold diferences between doses, R=total number dead, and N=total number of animals tested.
# FLC-745 cells = experiment: MLTC assay of CTL activity, FLC-745 target cells; type: cell-based
# Source text: A mixed lymphocyte tumor culture (MLTC) immunoassay, used to determine the cytotoxic lymphocyte (CTL) activity employs lymphocytes from either immunized (sensitized) mice or DBA/2 tumor dormant state animals in various stages of the tumor dormant state (TDS). The assay employs L5178Y target cells labeled with ^51 Chromium and effector cells (sensitized lymphocytes) from the above-mentioned sources. Effector-target cell ratios will vary with different experimental conditions and may or may not include irradiated stimulator L5178Y cells. Results are expressed as % lysis of target cells based on ratio of cpm of test group over cpm of total release (maximum) both of which are corrected for spontaneous release of ^51 Cr. The assay can be performed as an 8 or 18 hour release assay.
# An MLTC assay is performed to assess the CTL activity and tumor target cell specificity of Cpd. 1. Tumor dormant spleen cells and normal spleen cells of DBA/2 mice are used as effector cells. Irradiated L5178Y cells are used as stimulator cells. ^51 Cr-labeled L5178Y cells and FLC-745 cells are used as target cells. The effector/target ratios studied are 100:1, 30:1 and 10:1.
# L-1210 leukemia = experiment: Anti-cancer study, L-1210 leukemia in BDF1 mice; type: in vivo, mouse; conditions: seven days
# Source text: Mice of the BDF1 strain are given an i.p. inoculation of 10^6 L-1210 leukemia cells on day 0. Twenty-four hours later, groups of 7 mice each are started on a […] treatment regimen of various doses of the compounds of this invention. The experiment is continued according to the guidelines provided under the National Cancer Institute protocol for screening new anti-cancer agents and T/C ratios (median or mean survival time of treated groups over median or mean survival time of controls) are calculated. A T/C value ≥1.25 (or 125%) is considered significant anticancer activity.
# (§1) Mice of the BDF1 strain, inoculated with L-1210 leukemia cells, are treated for seven days with either 25, 50, 100, 200 or 400 mg/kg of Cpd. 1 or just buffer. The National Cancer Institute protocol for screening new anti-cancer agents is followed and T/C ratios are calculated.
# as §1, with “either 100” for “either 25, 50, 100, 200 or 400”, “Cpd. 1, 20 mg/kg of 5-fluorouracil (5-FU), a known anti-cancer agent,” for “Cpd. 1”
structure (smiles),measurement,setting,value
Cc1ccc(C2(O)C(=O)OC3C(O)COC32O)o1.Cc1ccc(C2(O)C(=O)OC3C(O)COC32O)o1.O=C1CCC(=O)O1 (centres unmarked) [Cpd. 1],Number Dead on Day 3,"C57BL/6 mice; single i.p. 1,000 mg/kg",0
same,Number Dead on Day 3,"C57BL/6 mice; single i.p. 2,000 mg/kg",0
same,Number Dead on Day 3,"C57BL/6 mice; single i.p. 4,000 mg/kg",7
same,Number Dead on Day 3,"C57BL/6 mice; single i.p. 8,000 mg/kg",10
same,Number Dead on Day 3,"C57BL/6 mice; single i.p. 16,000 mg/kg",10
same,% Lysis,"FLC-745 cells; E + D (TDS effector, no stimulator), E/T 10:1",0.7%
same,% Lysis,"FLC-745 cells; E + D (TDS effector, no stimulator), E/T 30:1",4.6%
same,% Lysis,"FLC-745 cells; E + D (TDS effector, no stimulator), E/T 100:1",6.6%
same,% Lysis,"FLC-745 cells; E + S + D (TDS effector, stimulator), E/T 10:1",0.5%
same,% Lysis,"FLC-745 cells; E + S + D (TDS effector, stimulator), E/T 30:1",3.6%
same,% Lysis,"FLC-745 cells; E + S + D (TDS effector, stimulator), E/T 100:1",13.4%
same,enhancement of CTL activity,FLC-745 cells; FLC-745 target system (Example 28),not observed
same,% Lysis,"FLC-745 cells; N + D (normal effector, no stimulator), E/T 10:1",-3.5%
same,% Lysis,"FLC-745 cells; N + D (normal effector, no stimulator), E/T 30:1",0.9%
same,% Lysis,"FLC-745 cells; N + D (normal effector, no stimulator), E/T 100:1",13.9%
same,% Lysis,"FLC-745 cells; N + S + D (normal effector, stimulator), E/T 10:1",-1.1%
same,% Lysis,"FLC-745 cells; N + S + D (normal effector, stimulator), E/T 30:1",-0.8%
same,% Lysis,"FLC-745 cells; N + S + D (normal effector, stimulator), E/T 100:1",5.8%
same,Median Survival Time,L-1210 leukemia; 25 mg/kg,20 days
same,Median Survival Time,L-1210 leukemia; 50 mg/kg,21 days
same,Median Survival Time,L-1210 leukemia; 100 mg/kg,30 days
same,Median Survival Time,L-1210 leukemia; 200 mg/kg,30 days
same,Median Survival Time,L-1210 leukemia; 400 mg/kg,25 days
